Source: patent US20050215531A1, “Use of edg receptor binding agents in cancer” (priority 2002, published 2005)

How the values were obtained:
ERK½ MAP kinases = assay: Western blot, activation of ERK½ MAP kinases in HUVEC; format: cell-based, human; settings: endothelial cells, 5 minute to 60 minute treatment
Method: (§1) Human umbilical vein endothelial cells (HUVEC) are cultured at 37° C. and 5% CO2 in medium M199 supplemented with 20% SCS (HyClone, Logan, Utah), 1 U/ml heparin, 50 μg/ml ECGS, 2 mM glutamine, 100 U/ml penicillin and 0.1 mg/ml streptomycin. Cells are used for experiments up to passage number 5. Short-starved HUVEC are obtained by starving with 1% SCS-containing M199 for 5 h. Recombinant human VEGF165 is obtained from PromoCell (Heidelberg, Germany). Phospho-specific ERK½, p3B kinase polyclonal antibodies, nonphospho ERK½ antibodies and LumiGLO chemiluminescent reagent are from New England BioLabs (Beverly, Mass.), polyclonal IKB antibodies from Santa Cruz Biotechnology (Santa Cruz, Calif.). Peroxidase-conjugated donkey anti-rabbit immunoglobulin G (IgG) and sheep anti-mouse IgG are purchased from Amersham LIFE SCIENCE (Amersham Place, England). lmmobilon-P transfer membranes are products of Millipore (Bedford, Mass.). S is obtained from Sigma Chemical Co.; S1P is from Biomol. Compound A-phosphate stock solution is prepared by the following protocol. Compound A-phosphate is dissolved in methanol tracing with concentrated HCl (0.5 mg Compound A-phosphate in 500 μl of methanol plus 2 μl of HCl). Solvent from the resulting solution is evaporated under vacuum and the residue obtained is redissolved (variant 1) in 0.1% of defatted BSA solution in sterile deionized water (500 μl) or (variant 2) in 0.5% Triton X-100 in deionized water. The resulting stock solutions (2.5 mM) are sonicated and stored at 4° C.
After various treatments, the cells are washed twice with cold PBS, lysed in 100 μl of Laemmli buffer, scraped and heated for 5 min at 95° C. Total cell lysates are separated by SDS-PAGE and transferred to Immobilon-P membrane. The membrane is blocked for 30 minutes with PBS containing 0.1% Tween-20 and 3% skim milk and incubated for 1 hour at RT with a primary antibody diluted in blocking buffer. The membrane obtained is washed three times for 5 minutes with PBS containing 0.1% Tween-20 and incubated with peroxidase-conjugated secondary antibody for 1 hour at RT. After a washing step, the membrane is incubated for 1 minute with ECL reagent and exposed to film as required. For reprobing with another antibody, the membrane is washed twice in PBS, stripped for 30 min at 55° C. with stripping buffer (62.5 mM Tris-HCL, pH 6.8, 2% SDS, 100 mM 2-mercaptoethanol) and washed three times for 5 minutes with PBS at RT. The membrane is stored wet wrapped in SaranWrap at 4° C. after each immunodetection.
Signal transduction via MAP idnases plays a key role in a variety of endothelial cell functions. Treatment of HUVEC with Compound A-phosphate at 0.5 μM may result in transient activation of ERK½ with a peak of phosphorylation/activation at 10 minutes and returning to baseline by 20 minutes (see e.g. FIG. 5). No activation of p38 kinase and JNK½ by Compound A-phosphate is detectable in HUVEC. […] To estimate the possible role of inflammatory/NFκB-dependent program in Compound A-phosphatestimulated bioresponses of endothelial cells, the membranes are reprobed with anti-IκB antibodies. IκB levels are not affected by Compound A-phosphate treatment.

tissue factor = assay: Clotting assay, tissue factor activity on HUVEC; format: cell-based, human
Method: as §1
Cells are seeded in 6-well plates at 80-90% confluency and grown overnight. Cells are scraped from the plates and analyzed for tissue factor activity according to the method as described in Clauss, M., J. Biol. Chem. 271,17629-17634 (1996), Mechtcheriakova, D., Blood 93,3811-3823 (1999). Briefly, after induction for 4 hours with VEGF (1.5 nM), TNF-α (100 U/ml), S (0.5-2 μM), S1P (0.5-2 μM), Compound A (0.5-2 μM), and Compound A-phosphate (0.5-2 μM), cells are washed twice and then scraped in 1 ml clotting buffer (12 mM sodium acetate, 7 mM diethylbarbitate and 130 mM sodium chloride; pH 7.4). 50 μl of resuspended cells are mixed with 50 μl of citrated plasma, and clotting times are determined after recalcfication with 50 μl of 20 mM CaCl2 solution at 37° C. TF-equivalents are determined by using a standard curve obtained from rabbit brain thromboplastin.
An important characteristic feature of both classical inflammatory stimulus TNF-α and the main angiogenic growth factor VEGF on endothellal cells is their potency to upregulate tissue factor. Compound A, Compound A-phosphate, S or S1P are tested whether they also do induce tissue factor on HUVEC. […] The data obtained together indicate that Compound A, Compound A-phosphate, S and S1P mechanistically work distinctly to anglogenic VEGF and inflammatory TNF-α.

HUVEC = assay: In vitro angiogenesis (tube formation) assay on Matrigel; format: cell-based, human
Method: as §1
Morphogenesis of endothelial cells into capillary-like structures on Growth Factor Reduced Matrigel Matrix (BD Bioscience) is performed according to the manufacture procedure. Briefly, HUVEC are trypsinized, resuspended in serum-free Ml 99 medium containing soybean trypsin inhibitor (1 mg/ml, Sigma). After centrifugation cells are resuspended in serum-free medium at a density 0.5×10^5 cells/ml, and cell suspension is seeded in 96-well cell culture plates (Costar, Corning Incorporated) precoated with 50 μl of Matrigel in the absence or presence of various stimuli: VEGF at 1.5 nM, S1P at 0.1-2 μM, S at 0.5-2 μM, Compound A at 0.5-2 μM, and Compound A-phosphate at 0.1-2 μM. Eight hours later, cells on Matrigel are fixed with 3% formaldehyde in PBS and kept at 4° C. Results are quantitated from images made with a Nikon Diaphot microscope equipped with a cooled CCD camera (Kappa GmbH, Gleichen, Germany) by direct counting of branching points on two microscopic fields from each well done in duplicates.
The effect of Compound A and Compound A-phosphate on morphogenic differentiation of endothelial cells is determined using an in vitro angiogenesis assay on Matrigel. Endothelial cell morphogenesis is a complex process that requires cell-extracellular matrix interactions, followed by matrix remodelling, stimulated migration, cell-cell interactions, and perivascular proteolysis. […] This may be interpreted as a possible involvement of EDG-1 (S1P1) receptor-mediated signaling events in Compound A-phosphate-stimulated bioresponses (see e.g. FIG. 3). […] Importantly, high concentrations of S and Compound A (2-5 μM) inhibited VEGF-triggered tube formation.

[1] = Acute toxicity p.o. in rats
[2] = Acute toxicity p.o. in monkeys
[3] = test system: S1P- or VEGF-induced growth of vascularized tissue around the chamber; assay: Antiangiogenic activity, subcutaneous porous chamber (S1P or VEGF) in mice; format: in vivo; settings: once a day for 4 days; Compound A orally 0.3, 3, 30 or 50 mg/kg; Compound C enantiomers i.v. 2.5 mg/kg
Method: Porous chambers containing (I) sphingosine-1-phosphate (5 μM/chamber) or (ii) human VEGF (1 μg/chamber) in 0.5 ml of 0.8% w/v agar (containing heparin, 20 U/ml) are implanted subcutaneously in the flank of mice. S1P or VEGF induces the growth of vascularized tissue around the chamber. This response is dose-dependent and can be quantified by measuring the weight and blood content of the tissue. Mice are treated once a day (i) orally with Compound A (0.3, 3, 30 or 50 mg/kg) or (ii) intravenously with the R enantiomer of Compound C (2.5 mg/kg) or (iii) intravenously with the S enantiomer of Compound C (2.5 mg/kg) or (iv) orally or intravenously with vehicle (5% glucose, 10 ml/kg), starting 4-6 hours before implantation of the chambers and continuing for 4 days. The animals are sacrificed for measurement of the vascularized tissues 24 h after the last dose. The weight and blood content of the vascularized tissues around the chamber is determined. Animals treated with Compound A or with the R or S enantiomer of Compound C show reduced weight and/or blood content of the vascularized tissues compared to animals treated with vehicle alone.

[4] = test system: human A375 melanoma cells; assay: In vivo antitumor activity, A375 melanoma transplanted into BALB/c-nu/nu mice; settings: hydrochloride salt form, 0.5 to 5 mg/kg, 2 week treatment
From the text: Antitumor activity is expressed as T/C% (mean increase in tumor volumes of treated animals divided by the mean increase of tumor volumes of control animals multiplied by 100).
Aliquots of cancer cells (1×10^7), e.g. human A375 melanoma cells, are transplanted into BALB/c-nu/nu mice. When the tumors have reached ca. 10×10 mm in size, the animals are assigned randomly to four subgroups and the treatment with a compound of formula I is initiated. Animals are sacrificed after 2 week treatment, at which times tumors and tissues are harvested and prepared for morphological and molecular analysis. The size of the tumors is determined with a caliper.

[5] = test system: mouse breast cancer cell line JygMC(A); assay: In vitro antitumor activity: proliferation of synchronised mouse breast cancer cells; format: cell-based; settings: hydrochloride salt form, Coulter counter and SRB colorimetric assay
Method: A mouse breast cancer cell line originally isolated from mammary carcinomas is used, e.g. JygMC(A). The cell number is adjusted to 5×10^5 for plating in fresh medium before the procedure. Cells are incubated with fresh medium containing 2.5 mM of thymidine without FCS for 12 h and then washed twice with PBS, followed by addition of fresh medium with 10% FCS and additionally incubated for another 12 h. Thereafter the cells are incubated with fresh medium containing 2.5 mM of thymidine without FCS for 12 h. To release the cells from the block, the cells are washed twice with PBS and replated in fresh medium with 10% FCS. After synchronisation the cells are incubated with or without various concentrations of a compound of formula I for 3, 6, 9, 12, 18 or 24 h. The cells are harvested after treatment with 0.2% EDTA, fixed with ice-cold 70% ethanol solution, hydrolyzed with 250 μg/ml of RNaseA (type 1-A: Sigma Chem. Co.) at 37° C. for 30 mn and stained with propidium iodide at […] for 20 mn. After the incubation period, the number of cells is determined both by counting cells in a Coulter counter and by the SRB colorimetric assay. Under these conditions an S1P agonist, e.g. Compound B in hydrochloride salt form, inhibits the proliferation of the tumor cells at concentrations ranging from 10^−12 to 10^−6 M.

Row | SMILES | MAP kinase activation (ERK½ MAP kinases) | effect on TNF-α-induced tissue factor (tissue factor; TNF-α 100 U/ml) | effect on VEGF-induced tissue factor (tissue factor; VEGF 1.5 nM) | tissue factor activity (tissue factor; compound alone or in combinations, 0.5-2 μM, 4 hours) | effect on capillary-like network formation (HUVEC; 0.5-1 μM) | effect on VEGF-mediated remodelling (HUVEC; 0.5-1 μM, with VEGF) | effect on VEGF-triggered tube formation (HUVEC; high concentrations, 2-5 μM) | acute LD60 [1] [mg/kg] | acute LD60 [2] [mg/kg] | weight and/or blood content of the vascularized tissues compared to vehicle [3] | tumor growth vs saline control [4] | concentrations at which the proliferation of the tumor cells is inhibited [5]
1 | CCCCCCCCc1ccc(CCC(N)(CO)CO)cc1.Cl [Compound A, 2-amino-2-[2-(4-octylphenyl)ethyl]propane-1 ,3-diol] | Neither Compound A nor S are able to induce MAP kinase activation | not TNF-α-induced | slightly enhance | none of these compounds alone or in combinations may elevate tissue factor activity | weak, in comparison to Compound A-phosphate, but consistent enhancing effect | does not attenuate | inhibited | > 10 | > 10 | reduced |  | 
2 | NC(CO)(CO)CCc1ccc(C(=O)CCCCc2ccccc2)cc1 [Compound B, 2-amino-2-{2-[4-(1-oxo-5-phenylpentyl)phenyl]ethyl}propane-1,3-diol] |  |  |  |  |  |  |  |  |  |  | slows tumor growth | 10^−12 to 10^−6 M
3 | CCCCCCCOc1ccc(CCC(C)(N)CO)cc1 (stereo not drawn) [R enantiomer of Compound C, 2-amino-4-(4heptyloxyphenyl)-2-methyl-butanol] |  |  |  |  |  |  |  |  |  | reduced |  | 
